Measured values from US12453708B2, “Aminonaphthoquinone compounds for treatment and/or prevention of fibrosis diseases” (CALGENT BIOTECHNOLOGY CO., LTD., priority 2015, dated 2025).

Tested on: BLM-induced lung fibrosis in mice
Test: Bleomycin (BLM)-induced lung fibrosis mice model
Assay type: in vivo, C57BL/6JNarl mice
Conditions: BLM mice; for fibrosis score, Mean ± SEM: H&E histology day 39
Protocol: FIGS. 8 (A) and (B) show the effect of L056 effect on fibrosis score of BLM-induced lung fibrosis in mice. C57BL/6 mice (8 weeks) were treated with bleomycin (BLM, 0.05 U/50 μl) or PBS (50 μl) by endotracheal administration. […] On day 39, the mice were sacrificed and, the histologic analysis of lung tissue was performed by hematoxylin-eosin (H&E) staining (original magnification, x100). […] (A), Histology fibrosis score plot; (B), H&E staining plot.
FIG. 9 (A) to (D) show the inhibitory effects on pro-fibrogenic mediators, collagen, CTGF, fibronectin and […], respectively. (A), H&E staining plot for collagen; (B), H&E staining plot for CTGF; (C), H&E staining plot for fibronectin; (D), H&E staining plot for α-SMA.
C57BL/6JNarl mice (8 weeks) were treated with bleomycin (BLM, 0.05 U/50 μl) or PBS (50 μl) by endotracheal administration. […] On day 39, the mice were sacrificed, and the histologic analysis of lung tissue was performed by hematoxylin-eosin (H&E) staining (original magnification, x100).

[1] = 200 mg (mg/kg/day, q.d., oral, days 10 to 38)
[2] = 60 mg (oral, q.d., days 10 to 38)

Row | SMILES | Efficacy % (reduction of fibrosis score) [1] [%] | fibrosis score, Mean ± SEM [1] | Efficacy % (reduction of fibrosis score) [2] [%] | fibrosis score, Mean ± SEM [2]
1 | Cc1ccc(=O)n(-c2ccccc2)c1 [Esbriet, pirfenidone, reference compound] | 34.08 | 3.91 ± 0.21 | – | –
2 | COC(=O)c1ccc2c(c1)NC(=O)/C2=C(\Nc1ccc(N(C)C(=O)CN2CCN(C)CC2)cc1)c1ccccc1 [OFEV, nintedanib, reference compound] | – | – | 41.66 | 3.62 ± 0.30
